Article PMC6035319 (Saudi Pharmaceutical Journal : SPJ, 2018)

Tests used:
CYP1A2 = molecular target: T1, CYP1A2 (Homo sapiens, UniProt P05177); experiment: HPLC of acetaminophen formed from phenacetin in pooled human liver microsomes; format: biochemical
T1 sequence (P05177 2-516): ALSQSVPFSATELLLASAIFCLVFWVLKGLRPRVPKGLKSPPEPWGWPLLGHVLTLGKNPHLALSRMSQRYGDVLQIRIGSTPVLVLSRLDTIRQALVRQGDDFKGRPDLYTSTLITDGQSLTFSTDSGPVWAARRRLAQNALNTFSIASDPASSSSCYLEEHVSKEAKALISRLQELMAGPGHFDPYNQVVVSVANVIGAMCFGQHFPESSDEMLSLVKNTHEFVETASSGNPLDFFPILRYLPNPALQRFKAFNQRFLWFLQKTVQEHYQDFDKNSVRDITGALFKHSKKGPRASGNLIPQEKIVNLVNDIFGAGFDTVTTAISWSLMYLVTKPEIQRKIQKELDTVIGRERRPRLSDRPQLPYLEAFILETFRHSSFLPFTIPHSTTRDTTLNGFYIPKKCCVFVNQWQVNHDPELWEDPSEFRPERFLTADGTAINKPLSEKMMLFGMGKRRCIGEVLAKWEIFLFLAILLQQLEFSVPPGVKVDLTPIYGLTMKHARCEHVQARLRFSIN

CYP3A4 = CYP3A4 (Homo sapiens, UniProt P08684); format: biochemical
CYP3A4, sequence (P08684 2-503): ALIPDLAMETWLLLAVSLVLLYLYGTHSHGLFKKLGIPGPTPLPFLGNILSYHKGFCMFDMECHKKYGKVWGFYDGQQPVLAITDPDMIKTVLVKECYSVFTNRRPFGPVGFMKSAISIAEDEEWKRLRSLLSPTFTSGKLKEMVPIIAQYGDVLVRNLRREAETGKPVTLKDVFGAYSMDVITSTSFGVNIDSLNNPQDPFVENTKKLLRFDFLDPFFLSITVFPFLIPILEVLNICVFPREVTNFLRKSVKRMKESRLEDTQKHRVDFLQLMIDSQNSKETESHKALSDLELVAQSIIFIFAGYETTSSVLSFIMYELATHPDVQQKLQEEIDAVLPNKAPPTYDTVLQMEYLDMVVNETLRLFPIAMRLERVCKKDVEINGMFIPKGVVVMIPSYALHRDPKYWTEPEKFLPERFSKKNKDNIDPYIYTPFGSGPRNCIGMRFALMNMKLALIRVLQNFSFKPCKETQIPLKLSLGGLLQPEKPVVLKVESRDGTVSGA

An IC50 (CYP1A2) of 26.5 ± 2.9 µM and an IC50 (CYP3A4) of 25.2 ± 3.1 µM were found for `CC1=CC(=O)C(C(C)C)=CC1=O` [thymoquinone] in this work.
